No end group written: not given here.

The values below come from US7666835B2 (Imperial Innovations Limited, priority 2001, dated 2010).

Assay [1] is described as follows: iPVN injection, food intake in 24-h fasted rats (studies 1b, 2b). It counts as in vivo, rat. The note with it: for refeeding (food intake) after iPVN injection: study 1b, OXM, GLP-1 (3 nmol [sic]), exendin-4 0.03 nmol, glicentin, glucagon 1 nmol, SP-1 3 nmol, fasted rats. On the procedure: (§1) Animals had permanent stainless steel guide cannulas (Plastics One, Roanoke, Va.) stereotactically implanted ICV or iPVN.
Therefore, exendin-4 was injected iPVN at a dose of 0.03 nmol.

Assay [2] is described as follows: ICV injection in sated rats at onset of dark phase: food intake and behaviour (study 3). The conditions noted are these: study 3a, 3 nmol ICV, early dark phase, vs saline. Format: in vivo, rat.
Procedure: Food intake was measured 1 h postinjection (study 3a), and behaviour was assessed (study 3b).
A short description of assay [3]: ICV injection, food intake in 24-h fasted rats (studies 1a, 2a). It counts as in vivo, rat. The conditions noted are these: study 1a, 3 nmol ICV; for refeeding (food intake) after ICV injection: 24-h fasted rats, vs saline.
Excerpt: as §1

The test system of assay [4] is fos-like immunoreactivity. As to the kind of experiment: fos-like immunoreactivity (FLI) in hypothalamus and brainstem after IP injection. Format: in vivo, rat. The note with it: IP OXM 50 nmol/kg or CCK 15 nmol/kg; 90 minutes after injection.
Excerpt: The brains were removed and post-fixed overnight in PBF and then transferred to PB-sucrose (20% w/v) overnight. 40 μm coronal sections of brain and brainstem were cut on a freezing microtome and stained for fos-like immunoreactivity (FLI) by the avitin-biotin-peroxidase method. The sections were then mounted on poly-L-lysine-coated slides, dehydrated in increasing concentrations of ethanol (50-100%), delipidated in xylene and coverslipped using DPX mountant. Slides were examined for FLI-positive nuclei using a light microscope (Nikon Eclipse E-800) and images captured using a microimager (Xillix MicroImager). The numbers of FLI-positive nuclei in the hypothalamus and brainstem were counted by an independent member of the research team who was blinded to the experimental groups. The average number of FLI-positive nuclei per section was calculated and expressed as an integer for each animal.
In assay [5] the target is T1, GLP-1 receptor (Rattus norvegicus, UniProt P32301).
T1 construct: from tissue; host or cells: rat hypothalamus (membrane preparation)
T1 sequence (P32301 22-463): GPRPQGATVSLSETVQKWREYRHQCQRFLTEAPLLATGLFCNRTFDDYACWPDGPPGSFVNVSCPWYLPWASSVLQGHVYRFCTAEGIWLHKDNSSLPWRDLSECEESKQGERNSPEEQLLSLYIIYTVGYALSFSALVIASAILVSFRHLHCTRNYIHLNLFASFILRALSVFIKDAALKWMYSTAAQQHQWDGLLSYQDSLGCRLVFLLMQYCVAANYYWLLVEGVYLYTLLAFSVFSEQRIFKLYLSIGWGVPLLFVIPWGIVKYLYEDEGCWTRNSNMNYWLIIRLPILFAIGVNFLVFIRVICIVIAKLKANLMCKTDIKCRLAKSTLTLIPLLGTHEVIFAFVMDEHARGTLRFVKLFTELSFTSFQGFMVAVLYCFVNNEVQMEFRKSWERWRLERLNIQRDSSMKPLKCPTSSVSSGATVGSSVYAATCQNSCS
As to the kind of experiment: ICV coadministration of exendin-(9-39) with GLP-1 or OXM, food intake (study 4a). It counts as in vivo. The note with it: 1 h food intake. The protocol: (§2) Animals had permanent stainless steel guide cannulas (Plastics One, Roanoke, Va.) stereotactically implanted ICV or iPVN. All studies were carried out in the early light phase, between 0900-1100 h, after a 24-h fast, and food intake was measured 1, 2, 4, 8, and 24 h postinjection.

The target of assay [6] is T2, arcuate nucleus GLP-1 receptors (Rattus norvegicus, UniProt P32301).
T2 construct: 24-hour fasted rats received an iARC injection of saline or exendin9-39 (5 nmoles); from tissue; host or cells: living rat, hypothalamic arcuate nucleus
T2 sequence (P32301 22-463): T1 sequence (P32301 22-463)
Kind of assay: iARC exendin 9-39 prior to IP OXM or GLP-1, 1 hour food intake. It counts as in vivo. An excerpt: Rats cannulated into the arcuate nucleus were randomised into 6 groups (n=10-12 per group). […] The injection details are described in Table 1 below.

The target of assay [7] is T1, GLP-1 receptor. As to the kind of experiment: iPVN coinjection of exendin-(9-39) with GLP-1 or OXM, food intake (study 4b). It counts as in vivo. On the procedure:
as §2

Regarding `CC[C@H](C)[C@H](NC(=O)[C@H](Cc1ccccc1)NC(=O)[C@H](CCC(=O)O)NC(=O)[C@H](CCCCN)NC(=O)[C@H](C)NC(=O)[C@H](C)NC(=O)[C@H](CCC(N)=O)NC(=O)CNC(=O)[C@H](CCC(=O)O)NC(=O)[C@H](CC(C)C)NC(=O)[C@H](Cc1ccc(O)cc1)NC(=O)[C@H](CO)NC(=O)[C@H](CO)NC(=O)[C@@H](NC(=O)[C@H](CC(=O)O)NC(=O)[C@H](CO)NC(=O)[C@@H](NC(=O)[C@H](Cc1ccccc1)NC(=O)[C@@H](NC(=O)CNC(=O)[C@H](CCC(=O)O)NC(=O)[C@H](C)NC(=O)[C@@H](N)Cc1c[nH]cn1)[C@@H](C)O)[C@@H](C)O)C(C)C)C(=O)N[C@@H](C)C(=O)N[C@@H](Cc1c[nH]c2ccccc12)C(=O)N[C@@H](CC(C)C)C(=O)N[C@H](C(=O)N[C@@H](CCCCN)C(=O)NCC(=O)N[C@@H](CCCNC(=N)N)C(N)=O)C(C)C` [GLP-1, glucagon-like peptide-1], the “refeeding (food intake) after iPVN injection” value in assay [1] is recorded as “inhibited refeeding”. The “food intake after iPVN injection” value in assay [1] (study 2b, 1 nmol iPVN, until 8 h postinjection) is on record as “significantly reduced”. Further, the “food intake 1 h postinjection” value in assay [2] is reported as “significantly reduced food intake”. The “refeeding (food intake) after ICV injection” value in assay [3] is given as “significantly reduced refeeding”. For the same molecule, in assay [3] (fasted rats), the “duration of inhibition of food intake postinjection” value is 4 h.

With “CCK-8 (DYMGWMDF; ends and bridges not checked; UniProt P06307 96-103, looked up) [positive control for gastric emptying and brainstem FLI]”, in assay [4], the “FLI / c-fos expression in the brainstem (NTS, area postrema)” value was “dense staining of FLI”.

Take exendin-4: the “refeeding (food intake) after iPVN injection” value in assay [1] is listed as “inhibited refeeding”.

As to exendin-(9-39), in the assay with GLP-1 receptor [5] (exendin-(9-39) 30 nmol with GLP-1 3 nmol (10:1)), the “effect of coadministered exendin-(9-39) on anorectic effect of GLP-1” value was “blocked the anorectic effects of GLP-1”. The “effect of coadministered exendin-(9-39) on anorectic effect of OXM” value in the assay with GLP-1 receptor [5] (exendin-(9-39) 30 nmol with OXM 3 nmol) is recorded as “attenuation of the anorectic effect of OXM”. The “Food intake” value in assay [6] (1 hour, iARC injection / IP injection 15 minutes later, exendin 9-39 5 nmoles, OXM or GLP-1 30 nmol/kg, Saline/saline 9.2) was 9.0 g. The “effect of prior iARC exendin 9-39 on inhibition of food intake by IP GLP-1” value in assay [6] (GLP-1 30 nmol/kg IP) is “not affected”. Further, in assay [6] (exendin 9-39 (300 nmol/kg as printed) into the ARC, OXM 30 nmol/kg IP), the “effect of prior iARC exendin 9-39 on anorexia caused by IP OXM” value is recorded as “blocked”. Also, the “effect of coinjected exendin-(9-39) on anorectic effect of GLP-1” value with GLP-1 receptor [7] (exendin-(9-39) 10 nmol with GLP-1 1 nmol) is on record as “blocked”. Also, in the assay with GLP-1 receptor [7] (exendin-(9-39) 10 nmol with OXM 1 nmol), the “effect of coinjected exendin-(9-39) on anorectic effect of OXM” value is given as “blocked”.

Take glucagon: in assay [1], the “refeeding (food intake) after iPVN injection” value was “failed to affect food intake at any time point”. For the same molecule, the “refeeding (food intake) after ICV injection” value in assay [3] is given as “failed to affect food intake at any time point”.
